Consider 31 compounds from ChEMBL document CHEMBL1129966, “Substituted indole-2-carboxylates as in vivo potent antagonists acting as the strychnine-insensitive glycine binding site” (J Med Chem, 1997).

The target of assay [1] is Glutamate receptor ionotropic, NMDA 1 (Rattus norvegicus, UniProt P35439). The assay can be described thus: Inhibition of [3H]glycine to glycine binding site, associated with the N-methyl-D-aspartate glutamate receptor 1 in crude synaptic membranes prepared from adult rat cerebral cortex. It is filed as cell membranes.
The subject of assay [2] is Mus musculus. The assay can be described thus: Effective dose to inhibit convulsions induced by NMDA in mice, when administered intravenous route. It is filed as functional.
Assay [3] deals with Mus musculus. The assay can be described thus: Effective dose to inhibit convulsions induced by NMDA in mice, when administered peroral route. It is filed as functional. Particulars: po.
Assay [4] concerns the target Glutamate receptor ionotropic, NMDA 1 (Rattus norvegicus) (UniProt P35439). In words: Antagonistic activity by using [3H]TCP radioligand (non competitive inhibition) at strychnine-insensitive N-methyl-D-aspartate glutamate receptor 1.

In the case of `O=C(/C=C/c1c(C(=O)O)[nH]c2cc(Cl)cc(Cl)c12)Nc1ccc(C(=O)O)cc1`, the Ki in assay [1] is 63.1 nM.

In assay [1], `O=C(/C=C/c1c(C(=O)O)[nH]c2cc(Cl)cc(Cl)c12)Nc1ccc(F)cc1` showed a Ki of 6.31 nM.

The compound `CN(C)c1ccc(NC(=O)/C=C/c2c(C(=O)O)[nH]c3cc(Cl)cc(Cl)c23)cc1` showed a Ki in assay [1] of 12.6 nM. In assay [1], `O=C(/C=C/c1c(C(=O)O)[nH]c2cc(Cl)cc(Cl)c12)Nc1ccc(C(F)(F)F)cc1` showed a Ki of 158 nM.

In turn, `O=c1[nH]c2cc(Cl)ccc2c(O)c1-c1cccc(Oc2ccccc2)c1` displayed an ED50 in the assay on Mus musculus [2] of 0.78 mg/kg. In assay [1], this compound gave an inhibitory constant (Ki) of 1 nM. `O=C(O)c1cc2c(Cl)cc(Cl)cc2[nH]1` showed an inhibitory constant (Ki) in assay [1] of 2000 nM. That is a single-digit micromolar value. `O=c1[nH]c2cc(Cl)c(Cl)c([N+](=O)[O-])c2[nH]c1=O` [LICOSTINEL] had an ED50 in the assay on Mus musculus [2] of 0.21 mg/kg. The Ki in assay [1] was 7.94 nM. With `O=C(O)/C=C/c1c(C(=O)[O-])[nH]c2cc(Cl)cc(Cl)c12.[Na+]`, the ED50 in the assay on Mus musculus [2] is 17.2 mg/kg; with Mus musculus [3] it was greater than 200 mg/kg. Besides, in assay [1], the inhibitory constant (Ki) is 20 nM. In turn, `O=C(/C=C/c1c(C(=O)O)[nH]c2cc(Cl)cc(Cl)c12)Nc1ccc(Nc2ccccc2)cc1` showed a Ki in assay [1] of 200 nM. Regarding `COc1ccc(NC(=O)/C=C/c2c(C(=O)O)[nH]c3cc(Cl)cc(Cl)c23)c(C)c1`, the Ki in assay [1] is 20 nM. Compared with the last compound, the Ki is about 10-fold lower. On the same count and under the same terms, next, `Nc1ccccc1NC(=O)/C=C/c1c(C(=O)O)[nH]c2cc(Cl)cc(Cl)c12`: 3.16 nM; `O=C(/C=C/c1c(C(=O)O)[nH]c2cc(Cl)cc(Cl)c12)Nc1ccccc1[N+](=O)[O-]`: 25.1 nM; `O=C(/C=C/c1c(C(=O)O)[nH]c2cc(Cl)cc(Cl)c12)Nc1cccc([N+](=O)[O-])c1O`: 10 nM. Compound `CCN(CC)c1ccc(NC(=O)/C=C/c2c(C(=O)O)[nH]c3cc(Cl)cc(Cl)c23)cc1` had a Ki in assay [1] of 100 nM. Take `O=C(/C=C/c1c(C(=O)O)[nH]c2cc(Cl)cc(Cl)c12)Nc1ccc(F)cc1[N+](=O)[O-]`: affinity in assay [1] was put at a Ki of 31.6 nM. For `O=C(/C=C/c1c(C(=O)[O-])[nH]c2cc(Cl)cc(Cl)c12)Nc1ccccc1.[Na+]` [GAVESTINEL SODIUM], the ED50 amounted to 0.06 mg/kg with Mus musculus [2] and 6 mg/kg in the assay with Mus musculus [3]. Moreover, affinity in assay [1] was put at a Ki of 3.16 nM. Also, in assay [4], the pA2 worked out at 8.1. Turning to `Nc1ccc(NC(=O)/C=C/c2c(C(=O)O)[nH]c3cc(Cl)cc(Cl)c23)cc1`, the Ki in assay [1] was 1.26 nM. In other words, the single-digit nanomolar range.

The compound `O=C(O)CCc1c(C(=O)[O-])[nH]c2cc(Cl)cc(Cl)c12.[Na+]` gave an ED50 with Mus musculus [2] greater than 10 mg/kg. This compound had a Ki in assay [1] of 39.8 nM. As to `O=C(O)c1[nH]c2cc(Cl)cc(Cl)c2c1/C=C/S(=O)(=O)Nc1ccccc1`, in assay [1], the Ki is 794 nM. This lies in the sub-micromolar range. With `O=C(/C=C/c1c(C(=O)O)[nH]c2cc(Cl)cc(Cl)c12)Nc1cccc(O)c1`, in assay [1], affinity was put at a Ki of 3.98 nM.

Compound `O=C(/C=C/c1c(C(=O)O)[nH]c2cc(Cl)cc(Cl)c12)Nc1ccc(O)cc1` gave a Ki in assay [1] of 2 nM. As for `Nc1cccc(NC(=O)/C=C/c2c(C(=O)O)[nH]c3cc(Cl)cc(Cl)c23)c1`, the Ki in assay [1] was 5.01 nM. In the assay on Mus musculus [2], `O=C(CCc1c(C(=O)[O-])[nH]c2cc(Cl)cc(Cl)c12)Nc1ccccc1.[Na+]` displayed a 50% effective dose (ED50) of 3.7 mg/kg. In assay [1], this compound had an inhibition constant (Ki) of 25.1 nM. As for `O=C(/C=C/c1c(C(=O)O)[nH]c2cc(Cl)cc(Cl)c12)Nc1cccc([N+](=O)[O-])c1F`, in assay [1], affinity was put at a Ki of 5.01 nM. `O=C(Nc1ccccc1)N[C@H]1C[C@H](C(=O)O)Nc2cc(Cl)cc(Cl)c21` registered an ED50 in the assay with Mus musculus [2] of 0.21 mg/kg. This compound also gave an inhibitory constant (Ki) in assay [1] of 6.31 nM. Take `O=C(/C=C/c1c(C(=O)O)[nH]c2cc(Cl)cc(Cl)c12)Nc1ccc(Cl)c([N+](=O)[O-])c1`: the Ki in assay [1] is 126 nM. For `O=C(/C=C/c1c(C(=O)[O-])[nH]c2cc(Cl)cc(Cl)c12)NCc1ccccc1.[Na+]`, the ED50 with Mus musculus [2] was greater than 30 mg/kg; with Mus musculus [3], greater than 200 mg/kg. Moreover, in assay [1], the Ki is 126 nM. For the compound `O=C(/C=C/c1c(C(=O)O)[nH]c2cc(Cl)cc(Cl)c12)Nc1ccc([N+](=O)[O-])cc1`, the inhibition constant (Ki) in assay [1] was 100 nM.

In turn, `NC(=O)Nc1ccc(NC(=O)/C=C/c2c(C(=O)O)[nH]c3cc(Cl)cc(Cl)c23)cc1` gave a Ki in assay [1] of 1.58 nM. Same read-out and setting: next, `CC(C)(C)OC(=O)/C=C/c1c(C(=O)O)[nH]c2cc(Cl)cc(Cl)c12`: 501 nM; `CC(C)c1ccccc1NC(=O)/C=C/c1c(C(=O)O)[nH]c2cc(Cl)cc(Cl)c12`: 50.1 nM.
